Results reported in patent US12391660B2, “Heteroaromatic acetamide derivative, and preparation and use thereof” (Hangzhou Westan Pharmaceutical Technology Co., Ltd, priority 2019, dated 2025).

Key:
asthmatic mice = test: Ovalbumin-induced asthma mouse model (BALF leukocyte counts, lung inflammation); type: in vivo, BABL/c mice; details: for percentage of eosinophils in BALF / percentage of macrophages in BALF / percentage of neutrophils in BALF / total number of leukocytes in BALF: intraperitoneal injection; for percentage of eosinophils in BALF / percentage of macrophages in BALF / percentage of neutrophils in BALF / total number of leukocytes in BALF / eosinophils in BALF: vs model control
Text: 4. Effects of Compounds on Ovalbumin-Induced Asthma in Mouse and Rat Models
SPF-grade SD male rats (purchased from Zhejiang Academy of Medical Sciences, license number SCXK (Zhejiang) 2019-0002) with a body weight of 160-180 g; and SPF-grade female BABL/c mice (purchased from Zhejiang Weitong Lihua Experimental Animals Technology Co., Ltd., license number SCXK (Zhejiang) 2019-0001) with a body weight of 16-18 g were used. The above animals were raised by the Experimental Animal Center of Zhejiang Academy of Traditional Chinese Medicine.
Formulation of compound solution: compound was vortexed in a solvent system, dissolved by ultrasound, and prepared into a solution at a corresponding concentration, which was prepared just before use (the solvent system was composed of 5% Solutol HS 15, 5% DMSO and 90% physiological saline).
BABL/c mice or SD rats were randomly divided into: normal control group, model control group, dexamethasone group (0.72 mg/kg), and the respective test compound groups (one group for each dose), 10 mice in each group; 6 rats in each group.
Sensitization of mice: on the mornings of Day 0, Day 7, and Day 14, mice in the model control group and the respective drug administration groups were intraperitoneally injected with 0.2 ml of 10% OVA sensitizing solution (Yuanye Bio), and the normal control group was intraperitoneally injected with an equal volume of normal saline. In the afternoons of Day 7 and Day 14, mice in the model control group and the respective drug administration groups were intraperitoneally injected with 0.2 ml of 10% OVA (Sigma), and the normal control group was intraperitoneally injected with an equal volume of normal saline.
Mice: from Day 21, the normal control group and the model control group were not treated; the dexamethasone group and the respective test compound groups were intraperitoneally injected, 20 minutes before each challenge, with the corresponding drugs, injection volume: 0.1 ml/10 g, administered for 7 consecutive days; mice in the test compound-oral group were given the corresponding drugs by intragastric administration 30 minutes before the challenge; the test compound-atomization group or the dexamethasone-atomization group was given the corresponding drugs at different concentrations before challenge, 8 ml for each group, atomization for 30 minutes; the normal control group and the model control group were given no treatment. Administration was conducted for 7 consecutive days.
Mice: from Day 21, the mice in the model control group and the respective administration groups were placed in airtight containers in turn, and the challenging solution was atomized with an ultrasonic nebulizer (approximately 6-8 ml each time), twice a day, OVA challenging solution from Yuanye Shanghai was atomized in the morning, and OVA challenging solution from Sigma was atomized in the afternoon. Mice were challenged for 30 minutes per atomization, for 7 consecutive days. The normal control group was not treated. Mice in the model control group developing cyanosis of lips, accelerated breathing, unsteadiness during standing, nodding breathing, abdominal muscle cramps, etc. was deemed as a sign of success of the animal model.
24 hours after completion of the last challenge, the trachea of the mouse was exposed in front of the neck, a horizontal incision was made in the trachea with an ophthalmic scissor, and a 5 ml syringe-modified tracheal intubation needle was inserted, the left main bronchus was ligated, and the right main bronchus was intubated and tightened with surgical suture. Bronchoalveolar lavage was conducted 3 times with 0.3 ml normal saline, pumpback twice each time. The BALF was combined and collected in a 1.5 ml test tube, which was placed on ice or in a refrigerator at 4 degrees.
50 μl of the above BALF was taken, and 100 μl white blood cell counting diluent (2% iced acetic acid solution) was added thereto and mixed evenly therewith. […]

human TRPA1 = human TRPA1 (Homo sapiens (Human), UniProt O75762); test: FLIPR assay of inhibitory activity on human TRPA1 (calcium ion flux fluorescence); type: cell-based; details: HEK293 cells stably expressing human TRPA1
Sequence of human TRPA1 (O75762 whole entry): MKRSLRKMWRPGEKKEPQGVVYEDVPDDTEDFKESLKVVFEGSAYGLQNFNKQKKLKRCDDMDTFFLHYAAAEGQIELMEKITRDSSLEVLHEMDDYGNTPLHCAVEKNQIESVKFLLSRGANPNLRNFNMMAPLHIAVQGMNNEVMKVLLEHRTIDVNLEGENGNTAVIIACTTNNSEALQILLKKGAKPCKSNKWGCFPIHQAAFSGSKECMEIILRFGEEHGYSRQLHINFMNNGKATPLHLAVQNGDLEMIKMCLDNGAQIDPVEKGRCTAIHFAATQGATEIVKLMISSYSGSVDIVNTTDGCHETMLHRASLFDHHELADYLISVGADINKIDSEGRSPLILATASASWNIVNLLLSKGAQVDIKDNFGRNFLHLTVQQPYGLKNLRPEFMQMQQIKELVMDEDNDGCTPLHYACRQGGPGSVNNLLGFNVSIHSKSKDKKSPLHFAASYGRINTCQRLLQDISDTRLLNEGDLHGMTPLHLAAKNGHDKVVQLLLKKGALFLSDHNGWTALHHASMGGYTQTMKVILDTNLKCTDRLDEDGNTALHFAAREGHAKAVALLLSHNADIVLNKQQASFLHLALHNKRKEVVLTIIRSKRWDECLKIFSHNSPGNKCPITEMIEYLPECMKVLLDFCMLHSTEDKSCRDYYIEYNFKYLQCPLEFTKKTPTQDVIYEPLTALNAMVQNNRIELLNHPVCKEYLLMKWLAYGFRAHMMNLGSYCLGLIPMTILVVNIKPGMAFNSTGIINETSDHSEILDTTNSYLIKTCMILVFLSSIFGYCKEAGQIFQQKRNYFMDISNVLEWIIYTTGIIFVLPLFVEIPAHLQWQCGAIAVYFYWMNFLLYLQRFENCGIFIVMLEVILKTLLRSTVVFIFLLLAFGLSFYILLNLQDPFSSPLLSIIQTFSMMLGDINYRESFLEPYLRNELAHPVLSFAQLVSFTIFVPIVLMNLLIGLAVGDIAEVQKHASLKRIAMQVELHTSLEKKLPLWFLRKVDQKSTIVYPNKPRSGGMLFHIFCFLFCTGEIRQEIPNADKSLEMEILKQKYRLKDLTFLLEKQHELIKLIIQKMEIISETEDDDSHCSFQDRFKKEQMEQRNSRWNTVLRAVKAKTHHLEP
How it was run: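 Tetracycline-induced (0.1 μg/ml) HEK293 cells stably expressing human TRPA1, loaded with 5 μM Fluo-4 AM for 1 h at 37° C. Compounds added in 1:5 dilutions from 30 μM (9 points, duplicate), then 3 mM CaCl2 after 10 min; fluorescence peak at 538 nm gave IC50.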

Row | Compound | percentage of eosinophils in BALF (asthmatic mice; P<0.01) | percentage of macrophages in BALF (asthmatic mice; P<0.01) | percentage of neutrophils in BALF (asthmatic mice; P<0.01) | total number of leukocytes in BALF (asthmatic mice; P<0.01) | lung tissue inflammation area (asthmatic mice; oral administration, P<0.05) | eosinophils in BALF (asthmatic mice; oral administration, P<0.01) | airway inflammation score (asthmatic mice; spray inhalation, P>0.05) | lung tissue inflammation area (asthmatic mice; spray inhalation, respective dose groups, P<0.01, 0.05) | eosinophils in BALF (asthmatic mice; spray inhalation, respective dose groups, P<0.05, 0.01) | IC50 (human TRPA1)
1 | N#Cc1ccc(NC2(C(=O)N3CCN(c4ccc(C(F)(F)F)cc4)CC3)CCCC2)cc1 [Compound 1, 4-((1-(4-(4-(trifluoromethyl)phenyl)piperazine-1-carbonyl)cyclopentyl)amino)benzonitrile] | decreased | increased | decreased | decreased | significantly reduced | significantly reduced | decreasing trend, but not reaching a statistical significance | reduce the lung tissue inflammation area of asthmatic mice in a dose-dependent manner | dose-dependent decrease | 40 nM
2 | CC(C)(C)C1CCN(C(=O)C2(Nc3ccc(C#N)cc3)CCCC2)CC1 [Compound 31, 4-((1-(4-(tert-butyl)piperidine-1-carbonyl)cyclopentyl)amino)benzonitrile] | decreased | increased | decreased | decreased | – | – | – | – | – | 87 nM
